Measured values published in patent publication US20230416294A1, “DECITABINE ANALOGS FOR IMMUNOLOGICAL AND ONCOLOGICAL THERAPY” (The Johns Hopkins University, priority 2020, published 2023).
Read-outs that look alike come from different tables or passages of the source.

What was measured:
lung allograft rejection = experiment: lung allograft rejection; details: in vivo
Mouse CD4+ T cells = experiment: regulatory T cell phenotype and function in cultured CD4+ T cells; type: cell-based; details: Mouse CD4+ T cells cultured for 3 days +/−DAC or MK-923
Experimental: Mouse CD4+ T cells were cultured for 3 days +/−DAC or MK-923;

[1] = tested on: Regulatory T cell (Tregs); experiment: Treg functional assay for efficacy; type: cell-based, Murine; details: dose response
Experimental: A functional assay was developed to identify a compound that can augment Regulatory T cell (Tregs) suppressive function. Tregs are the major regulators of the immune systems and are paramount in transplant tolerance and in autoimmune and inflammatory diseases. Current hypomethylating drugs such as decitabine (DAC) can augment Treg function, but carry significant side effects and cytotoxicity. Murine Tregs were isolated from spleens using magnetic beads (Miltenyi). […] Tregs were cultured for 48 hrs in the presence of anti-CD3, anti CD28 and IL-2+/−equimolar concentrations decitabine and analogs. After 48 hrs, Tregs were analyzed for suppressive phenotype using Foxp3 expression (master transcription factor) and relative proliferation (Ki-67 expression).

[2] = tested on: eosinophilic inflammation; experiment: asthma model; details: in vivo
influenza = influenza model; details: in vivo
[3] = tested on: acute lung injury induced by lipopolysaccharide (LPS); details: in vivo
[4] = tested on: bacterial-induced lung injury; experiment: bacterial-induced lung injury model, nebulized compound; type: in vivo; details: (1 mg/kg DAC)
[5] = toxicity of nebulized compound versus DAC; type: in vivo
[6] = lung delivery versus plasma after nebulization in LPS lung injury model; type: in vivo; details: inhaled, nebulized, read-out: enhanced lung delivery versus plasma
DU145 cancer cells = experiment: DAC incorporation into genomic DNA and DNA demethylation in DU145 cells; type: cell-based; details: DU145 cancer cells treated with a dose response of MK-923
Experimental: DU145 cancer cells were treated with a dose response of MK-923, and the degree of 5-aza-2′deoxycytidine (DAC) (Blue line, left axis), and DNA demethylation (orange line, right axis), was measured.

cytidine deaminase (CDA) = cytidine deaminase (CDA) (Homo sapiens, UniProt P32320); experiment: stability to cytidine deaminase (CDA); type: in vitro ADME
cytidine deaminase (CDA), sequence (P32320 whole entry, species assumed): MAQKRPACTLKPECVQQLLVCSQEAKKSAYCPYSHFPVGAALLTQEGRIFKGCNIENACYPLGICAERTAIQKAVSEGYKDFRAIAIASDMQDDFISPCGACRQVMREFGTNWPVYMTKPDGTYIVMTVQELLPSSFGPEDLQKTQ

Q: Which lung allograft rejection (lung allograft rejection) does the source give for `Nc1ncn([C@H]2C[C@H](O)[C@@H](CO)O2)c(=O)n1` [decitabine, 5-aza-2′-deoxycytidine] here?
A: improves lung allograft rejection

Q: What about the “enhancing regulatory T cell (Tregs) phenotype and function” value (Mouse CD4+ T cells) of the same molecule?
A: equipotent

Q: What about the “increase in Tregs” value [1] of the same molecule?
A: dose-dependent increase

Q: What about the “eosinophilic inflammation in an asthma model” value [2] of the same molecule?
A: potently abrogates eosinophilic inflammation

Q: What about the “ongoing inflammation in an influenza model” value (influenza) of the same molecule?
A: rescues ongoing inflammation

Q: With `CN1CCC/C1=N/c1ncn([C@H]2C[C@H](O)[C@@H](CO)O2)c(=O)n1` [MK-923] as the molecule, how does the “enhancing regulatory T cell (Tregs) phenotype and function” value (Mouse CD4+ T cells) read?
A: equipotent

Q: What about the “therapeutic index versus DAC” value [3] of the same molecule?
A: enhanced therapeutic index versus DAC

Q: What about the “toxicity in LPS lung injury model” value [3] of the same molecule?
A: without overt toxicity

Q: What about the “efficacy in bacterial-induced lung injury” value [4] of the same molecule?
A: rescues bacterial-induced lung injury

Q: And the hematological toxicity [4]?
A: reduced hematological toxicity

Q: What about the “toxicity versus DAC” value [5] of the same molecule?
A: improved toxicity versus DAC

Q: And the Kp [6]?
A: 6

Q: And the “5-aza-2′deoxycytidine (DAC) incorporation into genomic DNA” value (DU145 cancer cells)?
A: dose responsive increase

Q: And the “DNA Cytosine methylation” value (DU145 cancer cells)?
A: decrease

Q: For `O=c1nc(/N=C/N2CCCC2)ncn1[C@H]1C[C@H](O)[C@@H](CO)O1` [MK-911], which “stability to cytidine deaminase (CDA)” value (cytidine deaminase (CDA)) is on record?
A: stable

Q: And the “increase in Tregs” value [1]?
A: dose-dependent increase

Q: Which “stability to cytidine deaminase (CDA)” value (cytidine deaminase (CDA); +/−tetrahydrouridine) does the source give for `CN(C)/C=N\c1ncn([C@H]2C[C@H](O)[C@@H](CO)O2)c(=O)n1` [MK-890, N^4-Dimethylaminomethylene derivative] here?
A: stable
